Data taken from patent publication US20100015058A1, “RADIOLABELED BBN-RGD HETERODIMERS FOR CANCER TARGETING” (STANFORD UNIVERSITY, priority 2008, published 2010).

Legend:
[1] = in vivo; parameters: species or system mice; conditions: female, BALB/c, mouse, iv, 3.7 MBq, total radioactivity
Method: The 4T1 murine breast cancer cell line was purchased from American Type Culture Collection and grown in RMPI 1640 medium (Invitrogen Corp.) supplemented with 10% (v/v) fetal bovine serum (Invitrogen) at 37° C. with 5% CO2. The 4T1 tumor model was generated by subcutaneous injection of 5×10^6 tumor cells into the left front flank of female normal BALB/c mice (Harlan).
Five-minute static PET images were then acquired at 2 h after injection (n=3/group).

[2] = tested on: MDA-MB-435 tumor; assay: Small-animal PET of MDA-MB-435 tumor-bearing mice; conditions: female, athymic nude, mouse, in vivo, iv
Method: The MDA-MB435 tumor model was established by orthotopic injections of 5×10^6 cells into the right mammary fat pad of female athymic nude mice. […] The mice were subjected to microPET studies when the tumor volume reached 100-300 mm^3 (2-3 weeks for MDA-MB-435, and 4-5 wk for T47D).
For static PET, 5-min scans were acquired at 30 min, 1 h, and 2 h after injection. For dynamic PET, 30-min scans (1×30 s, 4×1 min, 1×1.5 min, 4×2 min, 5×3 min; total 15 frames) were started 1 min after injection, and two 5-min static PET images were also acquired at 1 h and 2 h after injection. The images were reconstructed using a two-dimensional ordered subsets expectation maximum (OSEM) algorithm and no correction was applied for attenuation or scatter. […] For each small-animal PET scan, regions of interest (ROIs) were drawn over the tumor, normal tissue, and major organs using vendor software ASI Pro 5.2.4.0 on decay-corrected whole-body coronal images. The maximum radioactivity concentrations (accumulation) within a tumor or an organ were obtained from mean pixel values within the multiple ROI volume, and were converted to megabecquerels per milliliter per minute using a conversion factor. These values were then divided by the administered activity to obtain (assuming a tissue density of 1 g/ml) an image ROI-derived percent injected dose per gram (% ID/g).
Quantification of tumor and major organ activity accumulation in the microPET scans was realized by measuring the regions of interest (ROIs) that encompassing the entire organ on the coronal images.

**Q.** Which tissue uptake at 2 h [1] does the source give for `CSCC[C@H](NC(=O)[C@H](CC(C)C)NC(=O)[C@H](Cc1c[nH]cn1)NC(=O)CNC(=O)[C@@H](NC(=O)[C@H](C)NC(=O)[C@H](Cc1c[nH]c2ccccc12)NC(=O)[C@H](CCC(N)=O)NC(=O)CCCCCNC(=O)CC[C@H](NC(=S)Nc1ccc(C[C@H]2CN(CC(=O)O)CCN(CC(=O)O)CCN2CC(=O)O)cc1)C(=O)NCCCC[C@@H]1NC(=O)[C@@H](Cc2ccc(O)cc2)NC(=O)[C@H](CC(=O)O)NC(=O)CNC(=O)[C@H](CCCNC(=N)N)NC1=O)C(C)C)C(N)=O` [^64Cu-NOTA-RGD-BBN, metal not drawn] here?
**A.** 1.88 ± 0.28 %ID/g

**Q.** What about the MDA-MB-435 tumor uptake ([2]; 1 h) of the same molecule?
**A.** 1.84 ± 0.44 % ID/g

**Q.** What about the MDA-MB-435 tumor uptake ([2]; 2 h) of the same molecule?
**A.** 1.47 ± 0.19 % ID/g
